Data from PubChem BioAssay (NCI).
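Each compound was tested at five concentrations against cells in 96-well plates for 48 hours. GI50 is the concentration that inhibits growth by half. TGI: total growth inhibition.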

Experiments:
Assay in all cases: NCI anticancer screen, dose series, 48 h
HCC-2998 colon = tested on: HCC-2998 colon
KM12 colon = tested on: KM12 colon
NCI-H23 lung = tested on: NCI-H23 lung
OVCAR-8 ovarian = tested on: OVCAR-8 ovarian
SF-295 CNS = tested on: SF-295 CNS
SK-MEL-28 melanoma = tested on: SK-MEL-28 melanoma
UACC-257 melanoma = tested on: UACC-257 melanoma
COLO 205 colon = tested on: COLO 205 colon
BT-549 breast = tested on: BT-549 breast
T-47D breast = tested on: T-47D breast

| SMILES | TGI (HCC-2998 colon) | TGI (KM12 colon) | TGI (NCI-H23 lung) | TGI (OVCAR-8 ovarian) | TGI (SF-295 CNS) | TGI (SK-MEL-28 melanoma) | TGI (UACC-257 melanoma) | TGI (COLO 205 colon) | GI50 (BT-549 breast) | TGI (BT-549 breast) | GI50 (COLO 205 colon) | GI50 (KM12 colon) | GI50 (NCI-H23 lung) | GI50 (OVCAR-8 ovarian) | GI50 (SF-295 CNS) | GI50 (SK-MEL-28 melanoma) | GI50 (T-47D breast) | TGI (T-47D breast) | GI50 (UACC-257 melanoma) | GI50 (HCC-2998 colon) |
| --- | --- | --- | --- | --- | --- | --- | --- | --- | --- | --- | --- | --- | --- | --- | --- | --- | --- | --- | --- | --- |
| CC(C)(C)c1cc(Cc2ccc(S(C)(=O)=O)cc2)c(O)c(C(C)(C)C)c1 | 29.8 µM | 30.4 µM | 31.3 µM | 28.1 µM | 25.8 µM | 32 µM | 31 µM | – | – | – | – | – | – | – | – | – | – | – | – | – |
| O=C(Nc1ccc(Nc2ccc(NC(=O)c3ccccc3)c3c2C(=O)c2ccccc2C3=O)c2c1C(=O)c1ccccc1C2=O)c1ccccc1 | > 100 µM | > 100 µM | – | > 100 µM | – | > 100 µM | > 100 µM | > 100 µM | – | – | – | – | – | – | – | – | – | – | – | – |
| Cc1cc(NS(=O)(=O)c2ccc(NC(=O)c3cccc4c(Nc5ccc(S(=O)(=O)Nc6cc(C)on6)cc5)c5ccc(Cl)cc5nc34)cc2)no1 | > 100 µM | > 100 µM | > 100 µM | > 100 µM | > 100 µM | > 100 µM | > 100 µM | > 100 µM | – | – | – | – | – | – | – | – | – | – | – | – |
| O=C1CCC2(c3ccccc3)OCC([C@@H](O)c3ccccc3)N12 (stereo partly drawn) | – | > 100 µM | > 100 µM | > 100 µM | > 100 µM | > 100 µM | > 100 µM | > 100 µM | – | – | – | – | – | – | – | – | – | – | – | – |
| COc1ccc(C(=O)C(c2ccc(OC)cc2)C2(O)C(=O)Nc3c(Cl)cc(Cl)cc32)cc1 (stereo not drawn) | – | 36.9 µM | 38.5 µM | 56.2 µM | 39.9 µM | 44.4 µM | 31.7 µM | 74.3 µM | – | – | – | – | – | – | – | – | – | – | – | – |
| c1ccc(-c2sc(-c3ccccc3)c3c2C(c2ccccc2)c2c(-c4ccccc4)sc(-c4ccccc4)c2C3c2ccccc2)cc1 (stereo not drawn) | > 100 µM | > 100 µM | > 100 µM | > 100 µM | > 100 µM | > 100 µM | > 100 µM | > 100 µM | – | – | – | – | – | – | – | – | – | – | – | – |
| O=C1CC[C@@H](S(=O)(=O)c2ccccc2)[C@H](/C=C/c2ccccc2)O1 | > 100 µM | > 100 µM | > 100 µM | > 100 µM | > 100 µM | > 100 µM | > 100 µM | > 100 µM | – | – | – | – | – | – | – | – | – | – | – | – |
| Nc1nc2c(ncn2C2OC(CO)C(O)C2O)c(=O)o1 (stereo not drawn) | > 100 µM | > 100 µM | > 100 µM | > 100 µM | > 100 µM | > 100 µM | > 100 µM | > 100 µM | – | – | – | – | – | – | – | – | – | – | – | – |
| C=C1C2CCCC1C1(S(C)(=O)=O)CCCCC21O (stereo not drawn) | > 100 µM | > 100 µM | > 100 µM | > 100 µM | > 100 µM | > 100 µM | > 100 µM | > 100 µM | – | – | – | – | – | – | – | – | – | – | – | – |
| COc1cc2c3c(n(CCCNCCCCN)c(=O)c2cc1OC)-c1cc2c(cc1C3=O)OCO2 | – | 21.7 µM | 10.7 µM | 8.6 µM | 16.5 µM | > 54.2 µM | 54.7 µM | > 46 µM | 2.43 µM | 16.6 µM | 6.02 µM | 4.58 µM | 1.63 µM | 1.91 µM | 0.169 µM | 4.49 µM | 3.11 µM | 27.1 µM | 16.8 µM | – |
| Cc1cc(C)c([O-])c(-[n+]2c(-c3ccccc3)cc(-c3ccccc3)cc2-c2ccccc2)c1 | 13.6 µM | 13.1 µM | 13.7 µM | 17.7 µM | 17.1 µM | 14.2 µM | 10.1 µM | 12.2 µM | – | – | – | – | – | – | – | – | – | – | – | – |
| N=C1C(c2nc3ccccc3c(=O)[nH]2)=C(O)CN1c1cccc(Cl)c1 | > 100 µM | > 100 µM | > 100 µM | > 100 µM | 17.8 µM | > 100 µM | > 100 µM | > 100 µM | 13.7 µM | > 100 µM | 5.07 µM | 2.01 µM | 4.67 µM | 5.35 µM | 3.23 µM | > 22.3 µM | – | – | > 100 µM | 34.3 µM |
| CCP(C)(=O)CC | > 100 µM | > 100 µM | > 100 µM | > 100 µM | > 100 µM | > 100 µM | > 100 µM | > 100 µM | – | – | – | – | – | – | – | – | – | – | – | – |
| CC1CN1c1c(C(=O)/C=C/c2ccc(F)cc2)c(-c2ccccc2)nn(C)c1=O (stereo not drawn) | 28.7 µM | 29.4 µM | 27.1 µM | 27.6 µM | 30.2 µM | 32 µM | 27.4 µM | 33 µM | – | – | – | – | – | – | – | – | – | – | – | – |
| [CH3][Ge]([CH3])([CH2]CC#N)[S]c1ccccc1 | > 100 µM | 33.5 µM | 46.4 µM | 46.5 µM | 41.5 µM | 65.1 µM | 70.7 µM | 52.4 µM | – | – | 17.5 µM | 14.6 µM | 18.3 µM | 11.5 µM | 16.5 µM | 16.5 µM | – | – | 22.7 µM | 0.0385 µM |
| CCCCNC(=O)CC1=C(C)/C(=C/c2[nH]c(-c3ccc[nH]3)cc2OC)N=C1C | – | 10.6 µM | 21 µM | 11.1 µM | 3.48 µM | – | 4.54 µM | 4.04 µM | 3.74 µM | 19.9 µM | 1.68 µM | 1.8 µM | 3.03 µM | 3.44 µM | 1.6 µM | – | 2.41 µM | 7.39 µM | 2.26 µM | – |
| CN(C)Cc1ccc(O)c(CN(C)C)n1 | – | > 100 µM | > 100 µM | > 100 µM | > 100 µM | > 100 µM | > 100 µM | > 100 µM | – | > 100 µM | – | – | – | – | – | – | – | > 100 µM | – | – |
| CCCCN(CCCC)CC(C(=O)Nc1ccc([N+](=O)[O-])cc1[N+](=O)[O-])/C(C)=N\NC(=O)c1ccncc1 (stereo not drawn) | > 100 µM | – | > 100 µM | > 100 µM | > 100 µM | > 100 µM | > 100 µM | > 100 µM | – | – | – | – | – | – | – | – | – | – | – | – |
| COC1(OC)CCC2(C)OC(c3ccccc3)C1O2 (stereo not drawn) | > 100 µM | > 100 µM | > 100 µM | > 100 µM | > 100 µM | > 100 µM | > 100 µM | > 100 µM | – | – | – | – | – | – | – | – | – | – | – | – |
| Cc1[nH]c2ccccc2c1/C=C/c1c(C)[nH]c2ccccc12 | > 100 µM | > 100 µM | > 100 µM | > 100 µM | > 100 µM | > 100 µM | > 100 µM | – | – | – | – | – | – | – | – | – | – | – | – | – |
| CCN(CC)CCOc1ccc(/C(=C(\C)Cc2ccc(OC)cc2)c2ccc(O)cc2)cc1 | 3.46 µM | 3.76 µM | 5.08 µM | 5.14 µM | 3.3 µM | 3.33 µM | 3.81 µM | 3.42 µM | – | – | 1.71 µM | 1.8 µM | 1.98 µM | 2.12 µM | 1.69 µM | 1.79 µM | 1.14 µM | 3.52 µM | 1.89 µM | 1.91 µM |
